Measurements taken from PubChem BioAssay AID1259408 (Genetic Toxicology Data Bank (GENE-TOX), 2018).
Active and inactive are the calls of the source. No rule for the calls is given here.

Test system: GENE-TOX genotoxicity assays, various organisms and cells
Assay: GENE-TOX mutagenicity studies
Conditions: for call: Assay Type: In vivo carcinogenicity studies
[1] = Species/Cell Type: Saccharomyces cerevisiae, Assay Type: Mitotic recombination or gene conversion, Assay Code: YEH-, Evaluation Type: Evaluation A (Pre-1980)
[2] = Species/Cell Type: Salmonella typhimurium (one or more of the five standard strains: TA98, TA100, TA1535, TA1537, and TA1538), Assay Type: Histidine reverse gene mutation, Ames assay, Assay Code: SAL-, Evaluation Type: Evaluation A (Pre-1980)
[3] = Species/Cell Type: Mammalian polychromatic erythrocytes, Assay Type: Micronucleus test, chromosome aberrations, Assay Code: MNT+, Evaluation Type: Evaluation A (Pre-1980)
[4] = Species/Cell Type: Saccharomyces cerevisiae, Assay Type: Mitotic recombination or gene conversion, Assay Code: YEC+, Evaluation Type: Evaluation A (Pre-1980)
[5] = Species/Cell Type: Mouse, Sex: Male, Assay Type: Sperm morphology, Assay Code: SPI-, Evaluation Type: Evaluation A (Pre-1980)
[6] = Species/Cell Type: Nonhuman, Assay Code: CCG+, Evaluation Type: Evaluation A (Pre-1980)
[7] = Species/Cell Type: Syrian hamster embryo (SA7/SHE) cells, Assay Type: Cell transformation, viral enhanced, Assay Code: CT7+, Evaluation Type: Evaluation A (Pre-1980)
[8] = Species/Cell Type: Salmonella typhimurium (one or more of the five standard strains: TA98, TA100, TA1535, TA1537, and TA1538), Assay Type: Histidine reverse gene mutation, Ames assay, Assay Code: SALT, Evaluation Type: Evaluation A (Pre-1980)
[9] = Species/Cell Type: Human, Assay Type: Sister-chromatid exchange (SCE) in vitro, Assay Code: SC1T, Evaluation Type: Evaluation B (Post-1980)
[10] = Species/Cell Type: Salmonella typhimurium (one or more of the five standard strains: TA98, TA100, TA1535, TA1537, and TA1538), Assay Type: Histidine reverse gene mutation, Ames assay, Assay Code: SAL+, Evaluation Type: Evaluation A (Pre-1980)
[11] = Species/Cell Type: Mammalian polychromatic erythrocytes, Assay Type: Micronucleus test, chromosome aberrations, Assay Code: MNT-, Evaluation Type: Evaluation B (Post-1980)
[12] = Species/Cell Type: Drosophila melanogaster, Assay Type: Sex-linked recessive lethal gene mutation, Assay Code: SRL+, Evaluation Type: Evaluation A (Pre-1980)
[13] = Species/Cell Type: Allium cepa, Assay Type: Chromosome aberrations, Assay Code: ALC+, Evaluation Type: Evaluation A (Pre-1980)
[14] = Species/Cell Type: Human lymphocytes, Assay Type: Sister-chromatid exchange (SCE) in vitro, Assay Code: SCL+D, Dose Response: With dose response, Evaluation Type: Evaluation B (Post-1980)
[15] = Species/Cell Type: Human, Assay Type: Sister-chromatid exchange (SCE) in vitro, Assay Code: SC1+D, Dose Response: With dose response, Evaluation Type: Evaluation B (Post-1980)
[16] = Species/Cell Type: Drosophila melanogaster, Assay Type: Sex-linked recessive lethal gene mutation, Assay Code: SRLT, Evaluation Type: Evaluation A (Pre-1980)

CCN(CC)c1ccc(N=Nc2ccccc2)cc1
mutagenic call [1]: inactive; negative
mutagenic call [2]: inactive; negative

CN1CCN(CC(=O)N/N=C/c2ccc([N+](=O)[O-])o2)CC1
mutagenic call (Species/Cell Type: Escherichia coli WP2, Assay Type: Tryptophan reverse gene mutation, Assay Code: WP2-, Evaluation Type: Evaluation A (Pre-1980)): inactive; negative
mutagenic call [3]: active; positive
mutagenic call (Species/Cell Type: Rodents, Sex: Male, Assay Type: Dominant lethal test, Assay Code: DLT-, Evaluation Type: Evaluation A (Pre-1980)): inactive; negative
mutagenic call [4]: active; positive

Cn1c(CCCC(=O)O)nc2cc(N(CCCl)CCCl)ccc21
mutagenic call (Species/Cell Type: Nonhuman, Assay Type: Sister-chromatid exchange (SCE) in vitro, Assay Code: SC2+D, Dose Response: With dose response, Evaluation Type: Evaluation B (Post-1980)): active; positive

COc1ccc2c3c1O[C@H]1[C@@H](O)C=C[C@H]4[C@@H](C2)N(C)CC[C@@]341
mutagenic call (Species/Cell Type: Mammalian polychromatic erythrocytes, Assay Type: Micronucleus test, chromosome aberrations, Assay Code: MNTT, Evaluation Type: Evaluation A (Pre-1980)): no conclusion
mutagenic call [5]: inactive; negative

O=C1C2(Cl)C3(Cl)C4(Cl)C(Cl)(Cl)C5(Cl)C3(Cl)C1(Cl)C5(Cl)C24Cl (stereo not given)
mutagenic call (Species/Cell Type: Human, Sex: Male, Assay Type: Sperm morphology, Assay Code: SPHT, Evaluation Type: Evaluation A (Pre-1980)): no conclusion
call [6]: active; positive

O=Cc1ccc(C(=O)O)cc1
mutagenic call [7]: active; positive

CCCCCCO
mutagenic call (Species/Cell Type: Nonhuman, Assay Type: Sister-chromatid exchange (SCE) in vivo, Assay Code: SC3T, Evaluation Type: Evaluation B (Post-1980)): no conclusion

OCC(F)(F)F
mutagenic call [8]: no conclusion

C=C1C[C@@]23CC[C@H]4[C@@](C)(CCC[C@@]4(C)C(=O)O[C@@H]4O[C@H](CO)[C@@H](O)[C@H](O)[C@H]4O)[C@@H]2CC[C@]1(O[C@@H]1O[C@H](CO)[C@@H](O)[C@H](O)[C@H]1O[C@@H]1O[C@H](CO)[C@@H](O)[C@H](O)[C@H]1O)C3
mutagenic call [9]: no conclusion

Cc1ccc2c(c1[N+](=O)[O-])C(=O)c1cccc([N+](=O)[O-])c1C2=O
mutagenic call [10]: active; positive

C[CH2][Hg][S]c1ccccc1C(=O)O
mutagenic call [4]: active; positive

O=C(O)CNC(=O)c1ccccc1
mutagenic call (Species/Cell Type: Escherichia coli WP2, Assay Type: Tryptophan reverse gene mutation, Assay Code: WP2-*, Activation: With metabolic activation, Evaluation Type: Evaluation A (Pre-1980)): inactive; negative
mutagenic call (Species/Cell Type: Escherichia coli WP2 UVRA, Assay Type: Tryptophan reverse gene mutation, Assay Code: WPU-*, Activation: With metabolic activation, Evaluation Type: Evaluation A (Pre-1980)): inactive; negative

Cc1ccc2cccc(O)c2n1
mutagenic call [8]: no conclusion

ClN1CCCCC1
mutagenic call [11]: inactive; negative

O=C1C(c2[nH]c3ccccc3c2O)=Nc2ccccc21
mutagenic call [11]: inactive; negative

CC[n+]1c(-c2ccccc2)c2cc(N=[N+]=[N-])ccc2c2ccc(N)cc21
mutagenic call [8]: no conclusion

CC(=O)OC(c1ccc2c(c1)OCO2)C1CO1 (stereo not given)
mutagenic call [10]: active; positive

ClCCNCCNc1c2ccccc2nc2c1ccc1ccccc12
mutagenic call [10]: active; positive

CN(C)N=Nc1cccnc1
mutagenic call [12]: active; positive
mutagenic call [3]: active; positive
mutagenic call (Species/Cell Type: Saccharomyces cerevisiae, Assay Type: Forward and reverse gene mutation, mitotic recombination and gene conversion, host-mediated assay, Assay Code: HME+, Evaluation Type: Evaluation A (Pre-1980)): active; positive
mutagenic call [4]: active; positive

c1ccc2cnccc2c1
mutagenic call [8]: no conclusion

C[C@H]1CCCC(=O)CCC/C=C/c2cc(O)cc(O)c2C(=O)O1
mutagenic call (Species/Cell Type: Bacillus subtilis (H17 vs M45), Assay Type: Rec-assay, spot test, DNA effects (bacterial DNA repair), Assay Code: REW+, Evaluation Type: Evaluation A (Pre-1980)): active; positive
mutagenic call [1]: inactive; negative

Cc1nc(N(C)C)nc(OC(=O)N(C)C)c1C
mutagenic call (Species/Cell Type: Aspergillus nidulans, Assay Type: Aneuploidy, chromosome aberrations, Assay Code: ASN-, Evaluation Type: Evaluation A (Pre-1980)): inactive; negative

C[n+]1c2ccccc2cc2cccc(N)c21
mutagenic call (Species/Cell Type: Saccharomyces cerevisiae, Assay Type: Forward gene mutation, Assay Code: YEF+, Evaluation Type: Evaluation A (Pre-1980)): active; positive

Oc1ccc2ncccc2c1
mutagenic call [2]: inactive; negative

COc1ccccc1O
mutagenic call [13]: active; positive
mutagenic call [14]: active; positive
mutagenic call [15]: active; positive
mutagenic call [8]: no conclusion

Cc1ccccc1N=Nc1c(O)ccc2ccccc12
mutagenic call (Species/Cell Type: Bacillus subtilis (H17 vs M45T), Assay Type: Rec-assay, spot test, DNA effects (bacterial DNA repair), Assay Code: REXT, Evaluation Type: Evaluation A (Pre-1980)): no conclusion
call [6]: active; positive

Cl.[Pt]
mutagenic call [7]: active; positive

O=C1CCC(N2C(=O)c3ccccc3C2=O)C(=O)N1 (stereo not given)
mutagenic call [13]: active; positive
mutagenic call (Species/Cell Type: Drosophila melanogaster, Assay Type: Aneuploidy, partial sex chromosome loss, chromosome aberrations, Assay Code: DAP-M, Evaluation Type: Evaluation A (Pre-1980)): inactive; negative
mutagenic call (Species/Cell Type: Drosophila melanogaster, Assay Type: Aneuploidy, sex chromosome gain, chromosome aberrations, Assay Code: DAG-M, Evaluation Type: Evaluation A (Pre-1980)): inactive; negative
mutagenic call (Species/Cell Type: Drosophila melanogaster, Assay Type: Aneuploidy, whole sex chromosome loss, chromosome aberrations, Assay Code: DAC-M, Evaluation Type: Evaluation A (Pre-1980)): inactive; negative
mutagenic call [5]: inactive; negative
mutagenic call (Species/Cell Type: Salmonella typhimurium, Assay Type: Forward and reverse gene mutation, host-mediated assay, Assay Code: HMA-, Evaluation Type: Evaluation A (Pre-1980)): inactive; negative
mutagenic call (Species/Cell Type: Vicia faba, Assay Type: Chromosome aberrations, Assay Code: VIC+, Evaluation Type: Evaluation A (Pre-1980)): active; positive

CN(C)P(=O)(N1CC1)N1CC1
mutagenic call [12]: active; positive
mutagenic call [14]: active; positive
mutagenic call [15]: active; positive
mutagenic call (Species/Cell Type: Nonhuman, Assay Type: Chromosome aberrations in vitro, Assay Code: CY&+, Evaluation Type: Evaluation A (Pre-1980)): active; positive
mutagenic call (Species/Cell Type: Schizosaccharomyces pombe, Assay Type: Reverse gene mutation, Assay Code: YEZ+, Evaluation Type: Evaluation A (Pre-1980)): active; positive

C=C(C)c1ccccc1
mutagenic call (Species/Cell Type: Human lymphocytes, Assay Type: Sister-chromatid exchange (SCE) in vitro, Assay Code: SCL+, Evaluation Type: Evaluation B (Post-1980)): active; positive
mutagenic call (Species/Cell Type: Human, Assay Type: Sister-chromatid exchange (SCE) in vitro, Assay Code: SC1+, Evaluation Type: Evaluation B (Post-1980)): active; positive

CN(C)C(c1ccccc1)(c1ccccc1)N(C)C
mutagenic call [2]: inactive; negative

CN(C)c1ccc(C(=O)c2ccc(N(C)C)cc2)cc1
mutagenic call (Species/Cell Type: Fischer rat embryo (RLV/1706) cells, Assay Type: Cell transformation, viral enhanced, Assay Code: CTR+, Evaluation Type: Evaluation A (Pre-1980)): active; positive
call [6]: active; positive

CCOc1ccccc1[N+](=O)[O-]
mutagenic call [10]: active; positive

Cc1cc2nc3ccc(N(C)C)cc3nc2cc1N
mutagenic call [16]: no conclusion
mutagenic call (Species/Cell Type: Escherichia coli polA (W3119 vs P3478), Assay Type: Rec-assay, DNA effects (bacterial DNA repair), Assay Code: RE1T, Evaluation Type: Evaluation A (Pre-1980)): no conclusion
mutagenic call (Species/Cell Type: Neurospora crassa, Assay Type: Aneuploidy, chromosome aberrations, Assay Code: NEN-, Evaluation Type: Evaluation A (Pre-1980)): inactive; negative
mutagenic call (Species/Cell Type: Salmonella typhimurium (one or more of the five standard strains: TA98, TA100, TA1535, TA1537, and TA1538), Assay Type: Histidine reverse gene mutation, Ames assay, Assay Code: SAL+*, Activation: With metabolic activation, Evaluation Type: Evaluation A (Pre-1980)): active; positive

Nc1cc([N+](=O)[O-])ccc1C(=O)O
call (Species/Cell Type: Nonhuman, Assay Code: CCG-, Evaluation Type: Evaluation A (Pre-1980)): inactive; negative

CNC(N)=O
mutagenic call (Species/Cell Type: Human lymphocytes, Assay Type: Sister-chromatid exchange (SCE) in vitro, Assay Code: SCLT, Evaluation Type: Evaluation B (Post-1980)): no conclusion
mutagenic call [9]: no conclusion
mutagenic call (Species/Cell Type: Salmonella typhimurium, Assay Type: Forward and reverse gene mutation, host-mediated assay, Assay Code: HMA+, Evaluation Type: Evaluation A (Pre-1980)): active; positive

Nc1ncnc2nc[nH]c12
mutagenic call (Species/Cell Type: Allium cepa, Assay Type: Chromosome aberrations, Assay Code: ALC+D, Dose Response: With dose response, Evaluation Type: Evaluation A (Pre-1980)): active; positive
mutagenic call [16]: no conclusion
